{
  "source": "patent US9446087B2",
  "about": "“Anti-resorptive and bone building dietary supplements and methods of use” (priority 2006, dated 2016)",
  "key": {"BMP-2": {"system": "BMP-2", "test": "BMP-2 Gene Expression Assay (MG-63 cells, real time PCR)", "type": "cell-based, human", "details": "10 μg/ml", "protocol": "It is also possible to test for BMP-2 gene expression and protein expression using assays similar to those described above for testing BMP-2 promoter activity. In particular, for gene expression, the human osteosarcoma cell line, MG-63 (ATCC# CRL-1427), is maintained in phenol-red containing MEM (as recommended by ATCC) at 37° C. and 5% CO2. Twenty-four hours prior to experimentation, 3×10^5 cells are seeded in 12-well plates in phenol-red free MEM. […] After an overnight incubation, RNA is extracted using conventional trizol/guanidine isothiocyanate based lysis. The isolated RNA was digested with RNase-free DNase I to remove any DNA contamination and then reverse transcribed to cDNA using random hexamer as well as oligo(dT) primers according to the manufacturer's instructions (Stratagene). Quantitative real time PCR is performed using FAM-labeled specific primers for BMP-2 and HEX-labeled specific primers for 18S rRNA (Invitrogen). All reactions are carried out in triplicate and the relative amount of mRNAs in treated versus untreated samples is calculated using the comparative CT method established by Applied Biosystems (2001). Gene expression changes of 2-fold or greater are considered significant."}, "[1]": {"system": "calvaria (skull bones) from 4 day old pups", "test": "Calvarial Assay to Measure Inhibition of Bone Resorption (45Ca release)", "type": "cell-based, CD-1 mice", "protocol": "In order to label cells of newborn mice in utero, pregnant CD-1 female mice (at timed day 15) were injected with ^45Ca (25 uCi/mouse). […] The bones were incubated at 37° C. in a 5% CO2 humidified incubator for a period of 24 hours following which they were transferred to wells containing 1 ml media with factors added (IL-1, PTH and or compounds.) The treated bones were incubated under the above conditions for a further 72 hours. […] The results were expressed as % ^45Ca release and can be further reported as T/C ratios. For some factors and compounds, modification of this procedure can be used. As most of the osteoclasts are formed in the calvaria following the preincubation period, the factors that affect osteoclast formation may have a greater effect during the preincubation period. Thus, for a number of the compounds, they were included in the preincubation media."}, "Neonatal murine calvaria": {"system": "Neonatal murine calvaria", "test": "Calvarial Assay to Measure Bone Growth", "type": "cell-based, Swiss white mice", "protocol": "Neonatal murine calvaria from 4 day old Swiss white mice are excised, placed into BGJ media (Sigma), and cut in half along the midline suture. One milliliter of BGJ media supplemented with 0.1% bovine serum albumin (BSA) is added to each well of a 12 well tissue culture plate (Costar) to which the relevant factors or vehicles are added. Each half calvaria is placed on a stainless steel grid in the above media at the media/air interface. Usually 4 bones per experimental group are used. […] Factors to be tested are added on Day 0 (the day of dissection) and media is changed at 24 and 96 hours (if a 7 day assay is required). Calvaria are maintained in humidified air (5% Co2), at 37° C. Following the period of incubation, the calvaria are then removed and fixed overnight in 10% formalin. The calvaria are then decalcified in 14% EDTA overnight and are then embedded in paraffin wax. Sections are then cut, using a standard microtome, along the midline suture to reveal the coronal suture and the region posterior to this suture. Four micrometer sections were taken initially and at two sequential […] depths. Sections are placed on coated glass slides (Superfrost plus, Fisher Scientific, Pittsburgh, Pa.) and stained with hematoxylin and eosin. The total and new bone area (expressed as mm^2), suture thickness (mm), and number of cells lining the bone surface are determined in the section posterior to the […] suture. Histomorphometric analysis is performed using the Osteomeasure System (Osteometrics INC, Atlanta, Ga.)."}, "BMP-2 promoter": {"system": "BMP-2 promoter", "test": "BMP2 Promoter assay (2T3-BMP2-Luciferase cells, luciferase)", "type": "cell-based, murine"}, "BMP-2 protein": {"system": "BMP-2 protein", "test": "BMP-2 Protein Expression Assay (Hu09 cells, ELISA)", "type": "cell-based", "protocol": "The cells are treated with different proteasome inhibitors for 24 hours. After incubation, the conditioned media is transferred into microcentrifuge tubes and centrifuged at 14,000 rpm for 2-3 minutes to remove cellular debris. The concentration of BMP-2 protein in the supernatant is then determined using the standard BMP-2 Elisa Kit (R&D ELISA KIT DBP200). Recombinant hBMP-2 (R&D) is used as a standard."}, "RANK-L [2]": {"system": "RANK-L", "test": "Inhibition of RANK-L production/release (IL-1b stimulated MG-63 cells, ELISA)", "type": "cell-based, human", "protocol": "Weigh between 150 to 250 mg of each ingredient into a 15 ml conical bottomed tube. […] For solvent control, mix 1.5 ml DMSO, 0.9 ml ethanol, and 0.6 ml water. Vortex thoroughly. Sonicate for 10 minute in water bath, room temperature. Vortex thoroughly again. Dilute ingredient stocks in fresh phenol red-free media. Human osteosarcoma cell line, MG-63 (ATCC #CRL-1427), is maintained in phenol-red containing MEM (as recommended by ATCC) at 37° C. and 5% CO2. Twenty-four hours prior to experimentation, 3×10^5 cells are seeded in 12-well plates in phenol-red free MEM. […] Stock solution of TGF-beta is 30 μg/ml (from R&D Systems, cat #100-B-001). After pretreatment incubation period, […] IL-1b (Calbiochem (catalog #407615) and stock solution at 10 μg/ml, cat #407615) were added to the cell cultures for 18 hours at 37° C. Supernatant media from the treated and stimulated cells were removed and total RANK-L proteins were measured using RANK-L ELISA (in triplicate) as described by manufacturer (from APOTECH, catalog #APO-54N-016-k101). The resulting protein quantity was compared to that of media (null) treated stimulated cells to determine percent decrease in total RANK-L protein."}, "[3]": {"system": "type IV collagenase protein (matrix metalloproteinase-9/MMP9)", "test": "MMP9 protein expression in IL-1B stimulated keratinocyte/fibroblast co-culture", "type": "cell-based", "details": "10 ng/ml, stimulus alone; untreated 1.0", "protocol": "Keratinocytes and fibroblasts were co-cultured in DMEM containing 0.5% BSA. Co-cultures were exposed to various concentrations of punicalagins (ranging from 0.1%-10%) were extracted from pomegranates. Specifically, the ability of the pomegranate extracts to inhibit type IV collagenase protein (matrix metalloproteinase-9/MMP9) expression at concentrations of 1.0 μg/ml, 10 μg/ml, and 100 μg/ml were tested. Following exposure to the pomegranate extracts, the co-culture cells were stimulated with 10 ng/ml of IL-1B for 18 hours. Following stimulation with IL-1B for 18 hours, and MMP9 concentration was determined in the media as shown below in Table 14."}, "RANK-L [4]": {"system": "RANK-L", "test": "RANK-L gene expression (IL-1b stimulated MG63 cells, qPCR)", "type": "cell-based, human", "details": "3 μg/ml, stimulus alone", "protocol": "Punicalagin test samples are extracted from pomegranates, including from pomegranate peels, skins, fleshy fruit, and seeds using 100% DMSO at 100 mg/ml. Particulate matter in the extraction is not removed. The punicalagin test samples are diluted in MEM without phenol red (estrogenic) and 0.1% FBS to lower background signaling to ten times the final concentrations. Final DMSO concentrations are kept below 0.2% and are kept constant during treatments. DMSO solvent control is used in the untreated group.\nMG63 cells (ATCC #CRL-1472), a human-derived osteosarcoma cell line, are plated at 200,000 cells per well in a 12 well plate with phenol red free MEM at 10% FBS. The next day the media is changed to phenol red free MEM at 0.1% FBS. […]\n[…] The treated cells the stimulus, IL-1b, are then allowed to incubate for 16 hours at 37° C.\nAfter 16 hours the cells are lysed and the RNA is extracted from the cells with the RNasy purification kit (Qiagen). RNA is reverse transcribed to cDNA and quantified by qPCR using 2-step qRT-PCR reagents (Invitrogen), and 4 μL of purified RNA. Annealing temperature is 57° C. in the Stratagene Mx4000 with 1 μL of RANK-L gene specific primers in a 50 μL reaction (10 μM initial concentration; HLUX3013920, Invitrogen Inc.).\nRANK-L and GAPDH gene expression Ct data are obtained. RNA is quantified with adjustments for GAPDH expression. […]"}},
  "note": "Several values for one entry are separate records, joined by “and”; a condition that tells them apart may be missing. Equal values may be shown once. Marks after values point to notes of the source that are not given here.",
  "data": [
    {"compound": "CC(C)Oc1ccc2c(=O)c(-c3ccccc3)coc2c1", "note": "[I, 7-isopropoxy isoflavone]", "values": [
      {"measurement": "Fold Change in Gene Expression", "setting": "BMP-2", "result": "No effect"},
      {"measurement": "Inhibition of Bone Resorption/Release of Ca^2+, % Release", "setting": "[1]; IL-1 + 1 μg/ml", "result": "38.00 ± 1.41", "unit": "% Release"},
      {"measurement": "Inhibition of Bone Resorption/Release of Calcium By Combinations of Extracts, % Release", "setting": "[1]; IL-1 + 1 μg/ml", "result": "29.75 ± 4.54", "unit": "% Release"},
      {"measurement": "Inhibition of Bone Resorption/Release of Ca^2+, % Release", "setting": "[1]; IL-1 + 10 μg/ml", "result": "32.50 ± 3.30", "unit": "% Release"},
      {"measurement": "Inhibition of Bone Resorption/Release of Calcium By Combinations of Extracts, % Release", "setting": "[1]; IL-1 + 10 μg/ml", "result": "30.25 ± 4.03", "unit": "% Release"},
      {"measurement": "Inhibition of Bone Resorption/Release of Ca^2+, % Release", "setting": "[1]; IL-1 + 100 μ/ml", "result": "19.25 ± 1.03^a % Release"},
      {"measurement": "Inhibition of Bone Resorption/Release of Calcium By Combinations of Extracts, % Release", "setting": "[1]; IL-1 ± 100 μg/ml", "result": "17.50 ± 1.66^a % Release"},
      {"measurement": "Calvarial Assay Results- Bone formation", "setting": "Neonatal murine calvaria; 1 μg/ml", "result": "2.44 ± 0.66", "unit": "mm^2 × 10^−3"},
      {"measurement": "Calvarial Assay Results- Bone formation", "setting": "Neonatal murine calvaria; 10 μg/ml", "result": "6.05 ± 1.12", "unit": "mm^2 × 10^−3"},
      {"measurement": "Calvarial Assay Results- Bone formation", "setting": "Neonatal murine calvaria; 100 μg/ml", "result": "7.04 ± 0.69^a mm^2 × 10^−3"},
      {"measurement": "BMP2 Promoter assay (ratio to control)", "setting": "BMP-2 promoter; 0.05 μg/ml", "result": 1.00, "unit": "FOLD"},
      {"measurement": "BMP2 Promoter assay (ratio to control)", "setting": "BMP-2 promoter; 0.1 μg/ml", "result": 0.90, "unit": "FOLD"},
      {"measurement": "BMP2 Promoter assay (ratio to control)", "setting": "BMP-2 promoter; 0.2 μg/ml", "result": 1.00, "unit": "FOLD"},
      {"measurement": "BMP2 Promoter assay (ratio to control)", "setting": "BMP-2 promoter; 0.4 μg/ml", "result": 0.90, "unit": "FOLD"},
      {"measurement": "BMP2 Promoter assay (ratio to control)", "setting": "BMP-2 promoter; 0.8 μg/ml", "result": 1.20, "unit": "FOLD"},
      {"measurement": "BMP2 Promoter assay (ratio to control)", "setting": "BMP-2 promoter; 1.6 μg/ml", "result": 1.50, "unit": "FOLD"},
      {"measurement": "BMP2 Promoter assay (ratio to control)", "setting": "BMP-2 promoter; 3.2 μg/ml", "result": 2.10, "unit": "FOLD"},
      {"measurement": "BMP2 Promoter assay (ratio to control)", "setting": "BMP-2 promoter; 6.3 μg/ml", "result": 2.90, "unit": "FOLD"},
      {"measurement": "BMP2 Promoter assay (ratio to control)", "setting": "BMP-2 promoter; 12.5 μg/ml", "result": 3.60, "unit": "FOLD"},
      {"measurement": "BMP2 Promoter assay (ratio to control)", "setting": "BMP-2 promoter; 25 μg/ml", "result": 3.90, "unit": "FOLD"},
      {"measurement": "BMP2 Promoter assay (ratio to control)", "setting": "BMP-2 promoter; 50 μg/ml", "result": 4.40, "unit": "FOLD"},
      {"measurement": "BMP2 Promoter assay (ratio to control)", "setting": "BMP-2 promoter; 100 μg/ml", "result": 4.50, "unit": "FOLD"},
      {"measurement": "BMP-2 Protein Expression", "setting": "BMP-2 protein; 1 μg/ml", "result": 2.4, "unit": "FOLD"},
      {"measurement": "BMP-2 Protein Expression", "setting": "BMP-2 protein; 10 μg/ml", "result": 1.8, "unit": "FOLD"},
      {"measurement": "BMP-2 Protein Expression", "setting": "BMP-2 protein; 100 μg/ml", "result": 1.8, "unit": "FOLD"},
      {"measurement": "RANK-L inhibition (%)", "setting": "RANK-L [2]; 10 μg/ml, listed as Ipriflavone (Ostivone)", "result": "0 ± 4.3% and 2.8 ± 3.9% and 0 ± 2.5%"},
      {"measurement": "% Change in Production/Release Levels (compared to untreated control)", "setting": "RANK-L [2]; tested at 1 μg/ml", "result": "No effect"}
    ]},
    {"compound": "IL1B: IL-1b stimulus (Calbiochem)", "values": [
      {"measurement": "MMP9 protein expression (fold of untreated)", "setting": "[3]", "result": 1.65},
      {"measurement": "RANK-L Expression (fold increase)", "setting": "RANK-L [4]", "result": "3.3 ± 0", "unit": "fold increase"}
    ]}
  ]
}
